Assay results as given in ChEMBL document CHEMBL1201862, “PubChem BioAssay data set” (2004).
Active and inactive are the calls of the source.

How the values were obtained:
[1] = NIH-3T3 fibroblast cytotoxicity, dose response, cytotoxicity control, cell-based, fluorescence, Alamar Blue, secondary assay (AID 2327); type: functional;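 also: NIH-3T3 mouse fibroblasts cultured with fluconazole at 8 µg/mL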
[2] = molecular target: T1, Sentrin-specific protease 6 (Homo sapiens, UniProt Q9GZR1); type: functional;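 also: Luminescence-based dose-response confirmatory assay of SENP6 inhibition, following up an ultra-high-throughput screen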
T1 sequence (Q9GZR1 whole entry): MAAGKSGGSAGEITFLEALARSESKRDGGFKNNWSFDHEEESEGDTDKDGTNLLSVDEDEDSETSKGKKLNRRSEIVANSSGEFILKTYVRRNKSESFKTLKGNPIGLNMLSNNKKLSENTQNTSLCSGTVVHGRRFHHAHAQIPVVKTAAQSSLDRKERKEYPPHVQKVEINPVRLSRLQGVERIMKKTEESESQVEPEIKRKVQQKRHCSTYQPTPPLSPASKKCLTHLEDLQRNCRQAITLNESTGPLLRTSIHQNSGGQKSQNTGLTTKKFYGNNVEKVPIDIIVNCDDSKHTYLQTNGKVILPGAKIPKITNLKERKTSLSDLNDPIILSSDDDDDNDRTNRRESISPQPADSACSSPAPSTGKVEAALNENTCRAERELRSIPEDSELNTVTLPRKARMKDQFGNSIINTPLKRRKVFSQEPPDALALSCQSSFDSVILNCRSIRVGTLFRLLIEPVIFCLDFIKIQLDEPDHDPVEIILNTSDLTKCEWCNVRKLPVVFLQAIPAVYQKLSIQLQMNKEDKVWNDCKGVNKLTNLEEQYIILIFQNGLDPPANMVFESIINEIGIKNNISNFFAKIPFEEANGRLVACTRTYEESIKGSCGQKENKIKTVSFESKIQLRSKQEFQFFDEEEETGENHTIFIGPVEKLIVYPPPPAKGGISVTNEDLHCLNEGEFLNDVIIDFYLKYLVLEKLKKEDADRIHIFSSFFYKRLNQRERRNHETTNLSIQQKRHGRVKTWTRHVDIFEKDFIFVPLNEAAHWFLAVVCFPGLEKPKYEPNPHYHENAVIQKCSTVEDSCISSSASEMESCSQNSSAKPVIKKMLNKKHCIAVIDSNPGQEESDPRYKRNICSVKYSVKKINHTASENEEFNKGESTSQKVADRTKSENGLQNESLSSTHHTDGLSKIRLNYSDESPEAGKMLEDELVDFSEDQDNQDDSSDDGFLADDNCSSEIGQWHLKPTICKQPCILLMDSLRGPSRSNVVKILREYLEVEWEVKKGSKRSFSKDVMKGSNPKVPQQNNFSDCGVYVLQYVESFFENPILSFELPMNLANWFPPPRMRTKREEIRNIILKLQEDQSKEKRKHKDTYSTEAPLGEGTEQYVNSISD

[3] = molecular target: T2, Sentrin-specific protease 8 (Homo sapiens, UniProt Q96LD8); type: functional;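 also: luminescence read-out of SENP8 inhibition, dose-response confirmation following an ultra-high-throughput screen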
T2 sequence (Q96LD8 whole entry): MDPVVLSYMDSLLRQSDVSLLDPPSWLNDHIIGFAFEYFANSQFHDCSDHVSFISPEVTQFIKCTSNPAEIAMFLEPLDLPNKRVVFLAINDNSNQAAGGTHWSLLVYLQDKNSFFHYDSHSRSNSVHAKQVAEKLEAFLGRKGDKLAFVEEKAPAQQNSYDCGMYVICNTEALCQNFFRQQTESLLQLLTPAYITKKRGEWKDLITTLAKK

[4] = fluconazole-exposed Candida albicans growth modulators – fluorescence, retest, confirmation (AID 2467); type: functional, cell-based
[5] = molecular target: T3, Sentrin-specific protease 7 (Homo sapiens, UniProt Q9BQF6); type: functional;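 also: Luminescence-based dose-response confirmation of ultra-high-throughput screening hits, measuring inhibition of SENP7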
T3 sequence (Q9BQF6 whole entry): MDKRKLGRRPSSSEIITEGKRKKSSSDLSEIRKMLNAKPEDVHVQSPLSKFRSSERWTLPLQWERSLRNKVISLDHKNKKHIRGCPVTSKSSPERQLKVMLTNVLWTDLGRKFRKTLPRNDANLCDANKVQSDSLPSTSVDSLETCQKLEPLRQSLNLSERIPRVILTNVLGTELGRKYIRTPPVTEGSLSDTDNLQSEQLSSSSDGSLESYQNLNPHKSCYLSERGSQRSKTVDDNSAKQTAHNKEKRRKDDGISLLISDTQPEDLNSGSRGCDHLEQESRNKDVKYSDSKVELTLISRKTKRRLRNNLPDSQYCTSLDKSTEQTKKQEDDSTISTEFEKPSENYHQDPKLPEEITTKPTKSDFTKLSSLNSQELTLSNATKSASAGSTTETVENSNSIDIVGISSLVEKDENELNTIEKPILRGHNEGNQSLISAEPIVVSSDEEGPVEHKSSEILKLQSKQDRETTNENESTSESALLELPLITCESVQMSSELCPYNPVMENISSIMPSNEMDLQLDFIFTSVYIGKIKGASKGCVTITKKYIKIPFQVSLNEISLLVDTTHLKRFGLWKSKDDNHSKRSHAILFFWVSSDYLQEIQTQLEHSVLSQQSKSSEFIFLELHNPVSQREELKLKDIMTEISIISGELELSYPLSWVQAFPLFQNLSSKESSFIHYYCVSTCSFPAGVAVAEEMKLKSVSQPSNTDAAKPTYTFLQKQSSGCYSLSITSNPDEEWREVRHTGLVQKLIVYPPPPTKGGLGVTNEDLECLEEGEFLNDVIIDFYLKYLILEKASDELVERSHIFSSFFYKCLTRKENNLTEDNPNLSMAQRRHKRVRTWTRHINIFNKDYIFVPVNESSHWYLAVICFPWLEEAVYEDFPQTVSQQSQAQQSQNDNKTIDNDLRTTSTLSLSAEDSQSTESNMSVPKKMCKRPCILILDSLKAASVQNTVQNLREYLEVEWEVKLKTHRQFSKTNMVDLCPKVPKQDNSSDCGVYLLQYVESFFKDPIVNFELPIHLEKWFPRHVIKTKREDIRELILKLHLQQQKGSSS

[6] = molecular target: T4, Corticotropin-releasing factor receptor 2/Corticotropin-releasing factor-binding protein (Homo sapiens, UniProt P24387+Q13324); assay: activators of CRF receptor 2 with binding protein – uHTS hits, confirmation (AID 602473); type: functional; conditions: read-out: EC50_Mean
T4 sequence (Q13324 whole entry): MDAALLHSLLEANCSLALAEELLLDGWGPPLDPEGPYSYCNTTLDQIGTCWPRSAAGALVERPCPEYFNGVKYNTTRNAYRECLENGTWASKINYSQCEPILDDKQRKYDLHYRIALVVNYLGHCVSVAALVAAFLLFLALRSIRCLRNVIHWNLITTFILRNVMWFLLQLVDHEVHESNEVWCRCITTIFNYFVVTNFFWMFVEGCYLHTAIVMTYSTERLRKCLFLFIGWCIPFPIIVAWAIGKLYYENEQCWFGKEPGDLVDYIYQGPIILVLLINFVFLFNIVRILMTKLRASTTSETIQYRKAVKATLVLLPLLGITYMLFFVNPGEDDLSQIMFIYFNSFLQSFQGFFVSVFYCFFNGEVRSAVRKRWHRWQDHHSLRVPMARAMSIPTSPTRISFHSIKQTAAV
T4 sequence (P24387 whole entry): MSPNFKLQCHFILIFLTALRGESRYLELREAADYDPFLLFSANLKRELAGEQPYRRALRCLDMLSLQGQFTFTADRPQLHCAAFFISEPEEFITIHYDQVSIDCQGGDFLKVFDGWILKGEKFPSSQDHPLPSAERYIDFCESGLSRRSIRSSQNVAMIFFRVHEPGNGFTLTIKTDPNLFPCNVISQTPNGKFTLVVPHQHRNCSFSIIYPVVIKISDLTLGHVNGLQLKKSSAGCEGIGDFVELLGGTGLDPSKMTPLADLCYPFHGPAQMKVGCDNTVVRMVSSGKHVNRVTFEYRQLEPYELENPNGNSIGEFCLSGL

[7] = molecular target: T5, Caspase-3 (Homo sapiens, UniProt P42574); type: functional;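 also: Dose-response selectivity test against caspase-3 for candidate inhibitors of sentrin-specific proteases (SENPs)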
T5 sequence (P42574 whole entry): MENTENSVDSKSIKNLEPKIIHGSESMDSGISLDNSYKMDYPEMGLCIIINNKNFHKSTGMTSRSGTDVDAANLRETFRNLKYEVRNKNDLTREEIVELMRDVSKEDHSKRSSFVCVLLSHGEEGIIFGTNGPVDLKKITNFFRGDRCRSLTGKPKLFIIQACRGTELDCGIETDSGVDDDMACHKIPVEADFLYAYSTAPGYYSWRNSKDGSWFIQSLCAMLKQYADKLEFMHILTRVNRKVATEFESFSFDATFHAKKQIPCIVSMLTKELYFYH

[8] = blockers of CRF-binding protein–CRF-R2 complex – cell-based, uHTS hits, 384-well, dose response (AID 651639); type: functional, Homo sapiens; conditions: read-out: IC50_Mean
[9] = molecular target: T4, Corticotropin-releasing factor receptor 2/Corticotropin-releasing factor-binding protein; assay: Dose Response confirmation of uHTS hits for small molecule antagonists of the CRF-binding protein and CRF-R2 receptor complex.; type: functional; conditions: read-out: IC50_Mean
[10] = molecular target: Mu-type opioid receptor (Homo sapiens, UniProt P35372); type: functional, cell-based;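 also: U2OS cells with beta-arrestin recruitment to OPRM1 by beta-gal complementation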
[11] = molecular target: 5-hydroxytryptamine receptor 2A (Mus musculus, UniProt P35363); type: functional, cell-based;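 also: CHO-K1 cells with tagged receptor and beta-arrestin; agonist potency measured as compound-induced activation of the receptor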
[12] = molecular target: T6, Low molecular weight phosphotyrosine protein phosphatase (Homo sapiens, UniProt P24666); type: functional; conditions: read-out: IC50_Mean
T6 sequence (P24666 whole entry): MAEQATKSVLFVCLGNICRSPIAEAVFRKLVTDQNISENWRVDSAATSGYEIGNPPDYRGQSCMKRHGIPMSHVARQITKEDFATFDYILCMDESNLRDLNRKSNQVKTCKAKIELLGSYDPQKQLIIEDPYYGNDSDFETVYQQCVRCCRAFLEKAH

[13] = molecular target: T6, Low molecular weight phosphotyrosine protein phosphatase; type: functional; conditions: read-out: IC50_Mean; remark: listed apart in the source
[14] = Counterscreen for inhibitors of Trypanosoma brucei methionyl tRNA synthetase (MetRS): Luminescence-based cell-based high throughput dose response assay to identify compounds that are cytotoxic to Jurkat human T lymphocyte cells.; type: functional
[15] = molecular target: T7, Methionyl-tRNA synthetase, putative (Trypanosoma brucei brucei, UniProt Q38C91); type: functional, Trypanosoma brucei brucei strain 927/4 GUTat10.1
T7 sequence (Q38C91 whole entry): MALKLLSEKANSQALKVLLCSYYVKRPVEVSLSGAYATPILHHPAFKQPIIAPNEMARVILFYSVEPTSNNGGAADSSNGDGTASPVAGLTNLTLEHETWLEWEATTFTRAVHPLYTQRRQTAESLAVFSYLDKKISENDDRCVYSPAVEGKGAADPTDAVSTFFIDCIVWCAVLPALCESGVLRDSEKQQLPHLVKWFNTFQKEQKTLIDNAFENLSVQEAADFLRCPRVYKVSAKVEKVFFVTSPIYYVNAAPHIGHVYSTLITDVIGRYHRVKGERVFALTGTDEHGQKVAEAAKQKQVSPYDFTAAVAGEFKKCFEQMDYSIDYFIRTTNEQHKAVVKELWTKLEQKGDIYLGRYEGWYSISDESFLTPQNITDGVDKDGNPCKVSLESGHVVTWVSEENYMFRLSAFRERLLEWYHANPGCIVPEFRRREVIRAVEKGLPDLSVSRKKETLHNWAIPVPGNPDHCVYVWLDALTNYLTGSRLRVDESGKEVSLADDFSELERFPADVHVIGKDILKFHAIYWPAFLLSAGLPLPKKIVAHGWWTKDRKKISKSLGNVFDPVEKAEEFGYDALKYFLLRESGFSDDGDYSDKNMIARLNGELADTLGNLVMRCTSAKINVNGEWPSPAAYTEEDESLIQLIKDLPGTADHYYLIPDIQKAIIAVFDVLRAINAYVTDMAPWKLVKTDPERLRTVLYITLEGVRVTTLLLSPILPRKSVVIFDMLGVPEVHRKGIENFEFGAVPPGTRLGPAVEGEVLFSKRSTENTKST

[16] = molecular target: T7, Methionyl-tRNA synthetase, putative; type: functional, Trypanosoma brucei brucei strain 927/4 GUTat10.1; remark: listed apart in the source

5-hydroxytryptamine receptor 2A, sequence (P35363 whole entry): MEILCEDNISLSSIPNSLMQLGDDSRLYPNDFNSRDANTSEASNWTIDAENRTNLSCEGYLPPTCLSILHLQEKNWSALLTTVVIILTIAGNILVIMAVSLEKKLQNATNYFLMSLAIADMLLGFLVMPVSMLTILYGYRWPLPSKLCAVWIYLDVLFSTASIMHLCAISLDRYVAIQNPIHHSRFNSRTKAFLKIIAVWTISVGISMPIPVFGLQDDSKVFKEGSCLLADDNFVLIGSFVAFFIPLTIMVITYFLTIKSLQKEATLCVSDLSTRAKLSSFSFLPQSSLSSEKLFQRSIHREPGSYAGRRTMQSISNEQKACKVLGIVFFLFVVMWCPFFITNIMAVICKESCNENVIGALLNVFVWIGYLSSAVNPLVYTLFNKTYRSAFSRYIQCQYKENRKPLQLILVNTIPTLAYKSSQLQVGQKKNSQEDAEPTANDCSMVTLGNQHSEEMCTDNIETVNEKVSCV
Mu-type opioid receptor, sequence (P35372 whole entry): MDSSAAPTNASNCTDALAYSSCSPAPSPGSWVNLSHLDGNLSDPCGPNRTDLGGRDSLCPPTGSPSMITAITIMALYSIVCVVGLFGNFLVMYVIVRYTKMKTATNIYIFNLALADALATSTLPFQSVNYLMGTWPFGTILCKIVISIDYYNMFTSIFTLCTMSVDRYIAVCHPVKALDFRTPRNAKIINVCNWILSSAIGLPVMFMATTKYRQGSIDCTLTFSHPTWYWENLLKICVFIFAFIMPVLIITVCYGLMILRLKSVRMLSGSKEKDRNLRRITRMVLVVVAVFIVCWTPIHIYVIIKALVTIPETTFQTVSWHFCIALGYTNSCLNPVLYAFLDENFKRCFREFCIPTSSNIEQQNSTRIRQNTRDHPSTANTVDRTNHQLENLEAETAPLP

## Cc1ccc(SCC(=O)Nc2cc([N+](=O)[O-])ccc2O)cc1
[1]
  EC50: > 150 µM (inconclusive)
[2]
  IC50: 25.6 µM (active)
[3]
  IC50: 31.3 µM (active)
[4]
  EC50: 0.046 µM (active)
[5]
  IC50: 29.3 µM (active)
[6]
  EC50: 23.4 µM (active)
[7]
  IC50: 17.9 µM (active)
[8]
  IC50: 13.5 µM (active)
[9]
  IC50: 2.34 µM (active)

## COc1ccc(CN2CCN(C(=O)c3ccco3)CC2)cc1OC
[10]
  EC50: 92.5 µM (inactive)
[11]
  EC50: 2.8 µM (active)

## Fc1cccc(CN2CCN(c3ncccn3)CC2)c1
[10]
  EC50: 92.5 µM (inactive)
[11]
  EC50: 0.277 µM (active)

## COc1ccc(Nc2nc(-c3ccc4c(c3)NC(=O)CO4)cs2)cc1
[12]
  IC50: 13.1 µM (active)
[13]
  IC50: 54.9 µM (inactive)

## COc1ccc(NC(=O)CC2C(=O)N(C)C(=S)N2CCc2ccc(F)cc2)cc1 (centres undefined)
[14]
  IC50: 63.3 µM (inactive)
[15]
  IC50: 6.36 µM (active)
[16]
  IC50: 17.4 µM (inactive)

## O=C(Cc1cccc(Cl)c1)Nc1ccc(Br)cc1
[14]
  IC50: 83.3 µM (inactive)
[15]
  IC50: 7.49 µM (active)
[16]
  IC50: 11.1 µM (inactive)

## O=C1CC(c2ccccc2)SC(N(c2ccccc2)c2ccccc2)=N1 (centres undefined)
[6]
  EC50: > 53 µM (inactive)
[8]
  IC50: > 20 µM (inactive)
[9]
  IC50: 7.25 µM (active)

## Cc1ccc(NC(=O)COC(=O)CCc2c[nH]c3ccccc23)c(C)c1
[6]
  EC50: > 53 µM (inactive)
[8]
  IC50: 8.75 µM (active)
[9]
  IC50: 4.32 µM (active)

## Cc1nccc(O)c1Cc1c(Cl)cccc1Cl
[12]
  IC50: 11.5 µM (active)
[13]
  IC50: 2.34 µM (active)
